Source: PMC6503114, “Application of Antimicrobial Peptides of the Innate Immune System in Combination With Conventional Antibiotics—A Novel Way to Combat Antibiotic Resistance?” (Frontiers in Cellular and Infection Microbiology, 2019)
Like-named read-outs stand apart in the source and are kept apart here. Marks after values point to notes of the source that are not given here. Bridges are numbered along the chain shown (N, C = ends). Where no end group is shown, it is not given here.

Assays:
[1] = tested on: bacteria; assay: Checkerboard titration, synergy cases with conventional antibiotics (all tested bacteria); type: cell-based; settings: in vitro, human AMPs
Procedure: (§1) According to checkerboard titration template, one component (A) of the combination was diluted along the rows of the plate, while the other (B) was diluted down the columns, thereby creating the variety of mixtures with different concentrations of tested compounds. 2.5 μl of corresponding solutions of the components A and B were added into each well of the plate. Into the first column and the last row the same amount of 10 mM sodium phosphate buffer, pH 7.4, containing 0.1% of BSA was introduced instead of the second component. Thus, all wells contained 5 μl of antimicrobial compounds solutions (solo or in combination). The same volume of bacterial suspension, prepared as described for microdilution assay, was added into each well. The results were recorded after the overnight incubation, visually indicating the presence or absence of the microbial growth in the corresponding wells. Based on the obtained data the isobolograms of combined action were plotted and/or Fractional Inhibitory Concentration Indices (FICI) were calculated. […] Depending on the minimal value of the FICI the combined effect of the combination was classified as antagonism (FICI > 2), independent action (1 < FICI ≤ 2), additivity (0.5 < FICI ≤ 1) or synergy (FICI ≤ 0.5), as is recommended in the literature and due to some drawbacks of the serial dilution method (Hsieh et al., [1993]; Orhan et al., [2005]; Fehri et al., [2007]). FICIs were assessed in 3–6 independent experiments and median values were used to define the nature of interaction.

[2] = tested on: MRSA ATCC 33591; assay: microbe, parasite or virus in culture; type: cell-based, Staphylococcus aureus; settings: median of 3–6 experiments, square brackets = twice the maximal tested concentration
[3] = tested on: P. aeruginosa MDR 522/17; assay: Checkerboard titration (FICI); type: cell-based, Pseudomonas aeruginosa
Procedure: as §1, with “The combined antimicrobial action of AMPs and other antimicrobial compounds was assessed using checkerboard titration approach under the conditions similar to that of the microdilution assay. According” for “According”

[4] = tested on: P. aeruginosa MDR 522/17; assay: microbe, parasite or virus in culture; type: cell-based; settings: Pseudomonas aeruginosa, MDR522/17; P. aeruginosa MDR 522/17, drug-resistant clinical isolate
Procedure: (§2) Prior to the “checkerboard” synergy test the minimal inhibitory concentrations (MIC) of individual substances were determined using broth microdilution assay. Testing was performed in 60-well polystyrene Terasaki microplates with V-shaped bottom generally according to the guidelines of the European Committee for Antimicrobial Susceptibility Testing with subtle modifications designed for AMP testing (Tossi et al., [1997]; Wiegand et al., [2008]). Cultivation of bacteria was carried out in 2.1% Müller-Hinton broth at 37°C with shaking. Two-fold serial dilutions of peptides, antibiotics and other antimicrobials were made with 10 mM sodium phosphate buffer, pH 7.4, containing 0.1% of BSA. The plates were preliminary incubated with 0.1% BSA for 1 h at 37°C to reduce a non-specific binding of peptides to the plates. After that BSA was removed, and serial dilutions were added into the plate wells in triplicates followed by the same volume of the suspension of bacterial cells in logarithmic phase of growth in concentration of 1 × 10^6 CFU/ml. After the 18 h overnight incubation at 37°C, the MIC value for each compound was determined as its lowest concentration completely inhibiting the visible growth of bacteria. The final results were calculated as median values based on 3–6 independent experiments.

[5] = tested on: K. pneumoniae ESBL 344/17; assay: microbe, parasite or virus in culture; type: cell-based; settings: Klebsiella pneumoniae, ESBL344/17; K. pneumoniae ESBL 344/17, drug-resistant clinical isolate
Procedure: as §2

[6] = tested on: E. coli ESBL 521/17; assay: microbe, parasite or virus in culture; type: cell-based; settings: Escherichia coli, ESBL521/17; E. coli ESBL 521/17, drug-resistant clinical isolate; square brackets = twice the maximal tested concentration
Procedure: as §2

[7] = tested on: S. aureus 1399/17; assay: microbe, parasite or virus in culture; type: cell-based; settings: Staphylococcus aureus
Procedure: as §2

[8] = tested on: A. baumannii 7226/16; assay: microbe, parasite or virus in culture; type: cell-based; settings: Acinetobacter baumannii; A. baumannii 7226/16, drug-resistant clinical isolate
Procedure: as §2

[9] = tested on: E. coli ESBL 521/17; assay: Checkerboard titration (FICI); type: cell-based, Escherichia coli
Procedure: as §1, with “The combined antimicrobial action of AMPs and other antimicrobial compounds was assessed using checkerboard titration approach under the conditions similar to that of the microdilution assay. According” for “According”

[10] = tested on: S. aureus 1399/17; assay: Checkerboard titration (FICI); type: cell-based, Staphylococcus aureus
Procedure: as §1, with “The combined antimicrobial action of AMPs and other antimicrobial compounds was assessed using checkerboard titration approach under the conditions similar to that of the microdilution assay. According” for “According”

[11] = tested on: K. pneumoniae ESBL 344/17; assay: Checkerboard titration (FICI); type: cell-based, Klebsiella pneumoniae
Procedure: as §1, with “The combined antimicrobial action of AMPs and other antimicrobial compounds was assessed using checkerboard titration approach under the conditions similar to that of the microdilution assay. According” for “According”

[12] = tested on: A. baumannii 7226/16; assay: Checkerboard titration (FICI); type: cell-based, Acinetobacter baumannii
Procedure: as §1, with “The combined antimicrobial action of AMPs and other antimicrobial compounds was assessed using checkerboard titration approach under the conditions similar to that of the microdilution assay. According” for “According”

[13] = antibiotic in combination with ChBac3.4
[14] = antibiotic in combination with PG-1
[15] = S. aureus 1399/17, drug-resistant clinical isolate, read-out: MIC

MIC [4]	MIC [5]	MIC [6]	MIC [7, 15]	MIC [8]	Molecule	AMP concentration in synergy cases with conventional antibiotics [1]	MIC [2]	Minimal FICI [3, 13]	Minimal FICI [3, 14]	Minimal FICI [9, 13]	Minimal FICI [9, 14]	Minimal FICI [10, 13]	Minimal FICI [10, 14]	Minimal FICI [11, 13]	Minimal FICI [11, 14]	Minimal FICI [12, 13]	Minimal FICI [12, 14]	MIC ([7]; 1399/17)
					GIGDPVTCLKSGAICHPVFCPRRYKQIGTCGLPGTKCCKKP (disulfide 8-37, 15-30, 20-38 (inferred)) [hBD-2]	0.2 to 1.6 µM	>100 [200] μM											
					GIINTLQKYYCRVRGGRCAVLSCLPKEEQIGKCSTRGRKCCRRKK (disulfide 11-40, 18-33, 23-41 (inferred)) [hBD-3]	0.08 to 3.75 µM												
> 50 µM	50 µM	> 50 µM	> 50 µM	> 50 µM	CC[C@H]1OC(=O)[C@H](C)[C@@H](O[C@H]2C[C@@](C)(OC)[C@@H](O)[C@H](C)O2)[C@H](C)[C@@H](O[C@@H]2O[C@H](C)C[C@H](N(C)C)[C@H]2O)[C@](C)(O)C[C@@H](C)C(=O)[C@H](C)[C@@H](O)[C@]1(C)O [Erythromycin]			0.38^*	0.5^*	0.38^*	0.62	0.5^*	0.75	0.25^*	0.25^*	0.75	1.12	
1 µM	0.25 µM	1 µM	> 50 µM	6.25 µM	NCC[C@H](O)C(=O)N[C@@H]1C[C@H](N)[C@@H](O[C@H]2O[C@H](CN)[C@@H](O)[C@H](O)[C@H]2O)[C@H](O)[C@H]1O[C@H]1O[C@H](CO)[C@@H](O)[C@H](N)[C@H]1O [Amikacin]			0.5	0.5	0.62	0.38	0.125^*	1.0	0.38	0.31	0.5^*	0.38^*	

Molecule	MIC [4]	MIC [5]	MIC [6]	MIC [7, 15]	MIC [8]	AMP concentration in synergy cases with conventional antibiotics [1]	MIC [2]	Minimal FICI [3, 13]	Minimal FICI [3, 14]	Minimal FICI [9, 13]	Minimal FICI [9, 14]	Minimal FICI [10, 13]	Minimal FICI [10, 14]	Minimal FICI [11, 13]	Minimal FICI [11, 14]	Minimal FICI [12, 13]	Minimal FICI [12, 14]	MIC ([7]; 1399/17)
C[C@@H](O)[C@H]1C(=O)N2C(C(=O)O)=C(S[C@@H]3CN[C@H](C(=O)N(C)C)C3)[C@H](C)[C@H]12 [Meropenem]	25 µM	0.04 µM	0.04 µM		> 50 µM			0.62	1.0	1.0	1.0	0.31^*	0.25^*	1.0	1.0	0.5^*	0.38^*	6.25 µM
